Measured values taken from US9670155B2, “Pyrrolidine derivatives as oxytocin/vasopressin V1a receptors antagonists” (ObsEva S.A., priority 2013, dated 2017).

Assays:
[1] = system: spontaneous uterine contractions; assay: Inhibition of spontaneous uterine contractions in anesthetized late-term pregnant rat; type: in vivo; details: oral route, 10, 30 or 60 mg/kg
Excerpt: Late-term pregnant (certified at days 19-21 of pregnancy) Sprague Dawley CD (SD) BR female rats (Charles River, Calco, Italy), weighing 350-400 g were anesthetized with urethane (1.05 g/kg, i.p.) and placed on a homeothermic operating table. A midline incision at the hypogastrium level was made, one pregnant uterine horn exposed and its tubal end (near the ovary) was closed by a ligature with surgical silk. Corresponding to the fetus close to the ovary, the uterine-horn wall was incised taking care not to injure the adjacent placenta and PE240 tubing with a latex balloon (9 mm length when empty, capacity 0.1 mL; Radnoti, Monrovia, Calif., USA) on the top was inserted into the lumen and secured to the uterine wall with surgical silk. After filling the internal cavity of the latex balloon with 0.1 mL of sterile physiological saline solution, the catheter was connected to an amplifying/recording system (MacLab, ADInstruments Pty Ltd, Castle Hill, Australia) via a P231D Gould-Statham pressure transducer. […] After the surgical preparation, a 30-min stabilization period was observed and then the effects of increasing doses of compounds of the present invention (given as 10-min i.v. infusion, bolus i.v. or p.o.) were evaluated by measuring the resulting uterine contractions. For the i.v. administration (infusion or bolus) the uterine contractile activity was quantified by calculating the AUC during the 10-min injection period. The percent variation of the AUC values relative to the spontaneous uterine response observed after each compound administration was calculated in comparison to the value recorded before the first dose-administration (basal value). The effect of test compounds of the present invention was evaluated by comparing pre- and post-treatment luminal uterine pressure values. […] Statistical differences between treatment groups at each time-point were determined by using one-way ANOVA followed by Tukey test. […] Contractions were continuously recorded and area-under-the-curve (AUC) integrated over 10-min time intervals.

[2] = nominal 30 mg/kg
Procedure: The animals used in this study were Sprague-Dawley, Crl: CD®BR albino rats. All animals were supplied by Charles River UK Ltd (Margate, Kent, UK). Animals were in the weight range 200-260 g and were approximately 2 months old. Rats were given a unique identity number and were identified by unique tail markings plus cage location.
The dose groups were as follows: 4 female were given an oral dose and 4 female were given an intravenous dose.
Dose formulations were prepared in an appropriate matrix; intravenous doses were prepared in NP3S, whilst oral doses were prepared in Labrasol:water (1:1 v/v).

[3] = Isomeric interconversion in oral and intravenous dose formulations (HPLC); type: physicochemical; details: oral (Labrasol:water 1:1) and intravenous (NP3S) dose formulations, pre- and post-dose
[4] = Qualitative solubility/crystallisation tests on 15 mg scale; type: physicochemical

CO/N=C1\C[C@@H](CO)N(C(=O)c2ccc(-c3ccccc3C)cc2)C1 [(3E,5S)-5-(hydroxymethyl)-1-[(2′-methyl-1,1′-biphenyl-4-yl)carbonyl]pyrrolidin-3-one O-methyloxime, reference compound]
inhibition of uterine contraction (in words) ([1]; any time during the 170-180 minutes observation): no inhibition of uterine contraction

CO/N=C1/C[C@@H](CO)N(C(=O)c2ccc(-c3ccccc3C)cc2)C1 [[^14C]-(3Z,5S)-5-(hydroxymethyl)-1-[(2′-methyl-1,1′-biphenyl-4-yl)carbonyl]pyrrolidin-3-one O-methyloxime]
isomeric interconversion in vivo ([2]; female rats, oral or intravenous dose): no detectable isomeric interconversion
presence of [14C]-E-isomer in plasma ([2]; rat plasma up to 6 hours after oral or intravenous administration): no evidence

CO/N=C1/C[C@@H](CO)N(C(=O)c2ccc(-c3ccccc3C)cc2)C1 [(3Z,5S)-5-(hydroxymethyl)-1-[(2′-methyl-1,1′-biphenyl-4-yl)carbonyl]pyrrolidin-3-one O-methyloxime]
interconversion to E-isomer during dose preparation or administration [3]: no detectable interconversion
Dissolves in: ([4]; solvent DIPE, hot): 40 vol
Dissolves in: ([4]; solvent IPA, hot): 4 vol
Dissolves in: ([4]; solvent MIBK, hot): 4 vol
Dissolves in: ([4]; solvent THF, cold): 4 vol
Dissolves in: ([4]; solvent heptanes): insoluble in 20 vol
Dissolves in: ([4]; solvent tBuOH, hot): 6 vol
Dissolves in: ([4]; solvent toluene, cold): 2 vol
Uterine contractions inhibition ([1]; 5 to 15 min after administration): 15%
Uterine contractions inhibition ([1]; 170-180 minutes after administration): 42%
